{
  "source": "patent US12622899B2",
  "about": "(PureTech LYT 100, Inc., priority 2018, dated 2026)",
  "key": {"[1]": {"tested_on": "rat BLM induced lung fibrosis model", "conditions": "in vivo, 400 mg/kg", "method": "For Groups 4, 5, 6, and 7, bleomycin and vehicle dosing were conducted as indicated in Table 28 (0.45 mg/kg, at 1696 IU/mg of Bleomycin or saline on Day 1, 2, 3, 6 and 7)."}, "older, healthy subjects": {"tested_on": "older, healthy subjects", "test": "Crossover study Part 2: safety and tolerability (TEAEs), fed and fasted", "assay_type": "in vivo, human", "description": "Over-encapsulation was utilized to maintain study blind. […] Approximately 50 older healthy female and male adult subjects (1:1 ratio) were randomized into 1 of 2 cohorts:Cohort 1 or Cohort 2, N=˜25 subjects per cohort. Subjects in each cohort were randomized to treatment sequence as follows: • Sequence A: Pirfenidone to LYT-100 • Sequence B: LYT-100 to pirfenidone"}, "[2]": {"tested_on": "patients with Idiopathic Pulmonary Fibrosis (IPF)", "test": "IPF trial Part A (26-week double-blind): efficacy, FVC and FVCpp, time to progression", "assay_type": "in vivo, human", "conditions": "for FVC, Bayesian Posterior Mean Difference vs. Placebo / FVC, Frequentist Adjusted Mean Difference vs. Placebo / FVCpp, Bayesian Posterior Mean comparison vs. Placebo / FVCpp, Frequentist Adjusted Mean comparison vs. Placebo / Treatment effect, FVC, versus placebo / Treatment effect, FVCpp, versus placebo: 26 weeks", "procedure": "The primary objective was to determine the dose(s) to carry into Phase 3. […] Patients were randomized to one of the four treatments in a 1:1:1:1 ratio and stratified based on prior exposure to nintedanib (<6 months) versus nintedanib-naïve patients. Patients who completed the Double-blind Treatment Period (Part A) were offered participation in the Long-term Extension (Part B). […] For patients who participated in Part B, the follow-up was conducted at the end of Part B. A graphical illustration of an embodiment of the trial design is provided as FIG. 24B.\nDoses were adjusted according to safety and tolerability to avoid toxicity.\nNote that, for all treatment groups, the first 7 days of treatment, one capsule was taken TID., Day 8 through Day 14, two capsules TID., and Day 15 forward, 3 capsules TID.\nWeekly home FVC was assessed with an individual spirometer, which was supplied to each patient. The site used its own equipment for in-clinic FVC assessments. Spirometry measurements were performed according to the American Thoracic Society/European Respiratory Society (“An Official American Thoracic Society and European Respiratory Society Technical Statement Technical Statement” Am J Respir Crit Care Med. 2019; 200(8):e71-e83) and the study specific Pulmonary Function Manual, at timepoints specified in the Schedule of Assessments. Spirometry was conducted while the patient was in a seated position. The test was done in order to achieve three acceptable FVC measurements (three curves to be provided), and the best result selected according to the guidelines. The best of three efforts was defined as the highest FVC, obtained on any of the three blows meeting the ATS/ERS/JRS/ALAT 2019 criteria (Graham et al, 2019) with preferably a maximum of eight attempts.\nPulmonary function was measured in a standardized manner and results transmitted electronically during the visit immediately after performing the spirometry and evaluated by a central reader. In case the acceptability and repeatability criteria as specified by ATS/ERS/JRS/ALAT guidelines were not met, a repeat spirometry was performed during the same visit.\nThe primary efficacy endpoint was the rate of decline in FVC mL over 26 weeks. In addition, decline in FVC % predicted from baseline to Week 26 and by >10% and >5% was assessed.\nThe secondary endpoint was comparison of FVC % predicted change from baseline to Week 26.\nThe following parameters were measured or calculated as part of the spirometry assessment: • FVC (mL) and FVC % predicted (FVCpp) • FEV1 (mL) and percent predicted forced expiratory volume in 1 second (FEV1% p) • FEV1/FVC ratio • Forced expiratory flow between 25% and 75% of exhaled volume (FEF25-75) The ‘2012 Global Lung Function Initiative Equations’ was used to calculate the predicted values (Quanjer et al, “Multi-ethnic reference values for spirometry for the 3-95 year age range: the global lung function 2012 equations: Report of the Global Lung Function Initiative (GLI), ERS Task Force to establish improved Lung Function Reference Values.,” Eur Respir J, vol. 40(6), pp. 1324-1343, 2012). […]"}, "CYP2D6": {"molecular_target": "T1, CYP2D6 (Homo sapiens, UniProt P10635)", "T1 construct": "host or cells: heterologous cell systems (not specified)", "T1 sequence (P10635 whole entry)": "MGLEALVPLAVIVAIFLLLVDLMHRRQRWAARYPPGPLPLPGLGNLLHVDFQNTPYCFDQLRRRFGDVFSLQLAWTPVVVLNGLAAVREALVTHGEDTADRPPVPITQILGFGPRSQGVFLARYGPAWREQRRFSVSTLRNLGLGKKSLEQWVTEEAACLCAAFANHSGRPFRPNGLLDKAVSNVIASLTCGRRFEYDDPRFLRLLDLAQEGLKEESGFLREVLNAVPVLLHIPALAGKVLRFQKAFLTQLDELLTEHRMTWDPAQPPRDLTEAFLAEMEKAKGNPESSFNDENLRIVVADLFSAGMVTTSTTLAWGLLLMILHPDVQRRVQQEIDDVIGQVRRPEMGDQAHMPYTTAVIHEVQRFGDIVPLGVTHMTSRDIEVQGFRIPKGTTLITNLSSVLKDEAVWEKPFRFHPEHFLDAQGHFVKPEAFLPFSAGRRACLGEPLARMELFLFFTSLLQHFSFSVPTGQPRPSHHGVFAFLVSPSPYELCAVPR", "test": "In vitro stability with recombinant human CYP2D6", "assay_type": "in vitro ADME", "conditions": "recombinant human isozyme; read-out: t1/2 following incubation with CYP2D6 (converted)", "procedure": "The half-life (t½) of each test article was determined."}, "[3]": {"conditions": "deupirfenidone 550 mg TID, N=65"}, "[4]": {"conditions": "deupirfenidone 825 mg TID, N=63"}, "[5]": {"conditions": "deupirfenidone 825 mg TID, N=63, listed as Deupirfenidone"}, "[6]": {"conditions": "deupirfenidone 825 mg TID, N=63, listed as deupirfenidone"}},
  "data": [
    {"smiles": "[2H]C([2H])([2H])c1ccc(=O)n(-c2ccccc2)c1", "note": "[LYT-100, 5-(methyl-d3)-1-phenylpyridin-2-(1H)-one]", "values": [
      {"measurement": "tolerability", "setting": "[1]", "result": "well tolerated"},
      {"measurement": "deaths or serious AEs", "setting": "older, healthy subjects; Part 2", "result": "No deaths or serious AEs"},
      {"measurement": "TEAEs leading to study discontinuation, subjects", "setting": "older, healthy subjects; in vivo", "result": "one"},
      {"measurement": "FVC, Bayesian Posterior Mean Difference vs. Placebo", "setting": "[2]; deupirfenidone 550 mg TID", "result": 34.1, "unit": "mL"},
      {"measurement": "FVC, Frequentist Adjusted Mean Difference vs. Placebo", "setting": "[2]; deupirfenidone 550 mg TID", "result": 31.8, "unit": "mL"},
      {"measurement": "FVCpp, Bayesian Posterior Mean comparison vs. Placebo", "setting": "[2]; deupirfenidone 550 mg TID", "result": 1.47},
      {"measurement": "FVCpp, Frequentist Adjusted Mean comparison vs. Placebo", "setting": "[2]; deupirfenidone 550 mg TID", "result": 1.62},
      {"measurement": "Treatment effect, FVC, versus placebo", "setting": "[2]; deupirfenidone 550 mg TID", "result": 28.3, "unit": "%"},
      {"measurement": "Treatment effect, FVCpp, versus placebo", "setting": "[2]; deupirfenidone 550 mg TID", "result": 47.2, "unit": "%"},
      {"measurement": "FVC, Bayesian Posterior Mean Difference vs. Placebo", "setting": "[2]; deupirfenidone 825 mg TID", "result": 90.9, "unit": "mL"},
      {"measurement": "FVC, Frequentist Adjusted Mean Difference vs. Placebo", "setting": "[2]; deupirfenidone 825 mg TID", "result": 91.0, "unit": "mL"},
      {"measurement": "FVCpp, Bayesian Posterior Mean comparison vs. Placebo", "setting": "[2]; deupirfenidone 825 mg TID", "result": 2.85},
      {"measurement": "FVCpp, Frequentist Adjusted Mean comparison vs. Placebo", "setting": "[2]; deupirfenidone 825 mg TID", "result": 3.00},
      {"measurement": "Treatment effect, FVC, versus placebo", "setting": "[2]; deupirfenidone 825 mg TID", "result": 80.9, "unit": "%"},
      {"measurement": "Treatment effect, FVCpp, versus placebo", "setting": "[2]; deupirfenidone 825 mg TID", "result": 87.5, "unit": "%"},
      {"measurement": "Treatment effect, FVC, versus placebo", "setting": "[2]; deupirfenidone 825 mg TID, listed as Deupirfenidone", "result": 80.9, "unit": "%"},
      {"measurement": "Treatment effect, FVC, versus placebo", "setting": "[2]; deupirfenidone 825 mg TID, listed as deupirfenidone", "result": 80.9, "unit": "%"},
      {"measurement": "6-month FVC decline compared with healthy older adults", "setting": "[2]; LYT-100 825 mg TID (FIG. 45)", "result": "in line with that seen for healthy adults >60 years"},
      {"measurement": "Cohen's D, FVC", "setting": "[2]; deupirfenidone 550 mg TID", "result": 0.14},
      {"measurement": "Cohen's D, FVCpp", "setting": "[2]; deupirfenidone 550 mg TID", "result": 0.23},
      {"measurement": "Change from Baseline in FVC over 26 Weeks, Bayesian Posterior Mean (SE)", "setting": "[2]; [3]", "result": "−76.7 (28.60) mL"},
      {"measurement": "Change from Baseline in FVC over 26 Weeks, Frequentist Adjusted Mean (SE)", "setting": "[2]; [3]", "result": "−80.7 (29.32) mL"},
      {"measurement": "Change from Baseline in FVCpp over 26 Weeks, Bayesian Posterior Mean (SE)", "setting": "[2]; [3]", "result": "−1.80 (0.88)"},
      {"measurement": "Change from Baseline in FVCpp over 26 Weeks, Frequentist Adjusted Mean (SE)", "setting": "[2]; [3]", "result": "−1.81 (0.886)"},
      {"measurement": "Cohen's D, FVC", "setting": "[2]; deupirfenidone 825 mg TID", "result": 0.40},
      {"measurement": "Cohen's D, FVCpp", "setting": "[2]; deupirfenidone 825 mg TID", "result": 0.44},
      {"measurement": "Change from Baseline in FVC over 26 Weeks, Bayesian Posterior Mean (SE)", "setting": "[2]; [4]", "result": "−19.9 (28.29) mL"},
      {"measurement": "Change from Baseline in FVCpp over 26 Weeks, Bayesian Posterior Mean (SE)", "setting": "[2]; [4]", "result": "−0.42 (0.88)"},
      {"measurement": "Change from Baseline in FVC over 26 Weeks, Frequentist Adjusted Mean (SE)", "setting": "[2]; [5]", "result": "−21.5 (28.86) mL"},
      {"measurement": "Change from Baseline in FVCpp over 26 Weeks, Frequentist Adjusted Mean (SE)", "setting": "[2]; [5]", "result": "−0.43 (0.872)"},
      {"measurement": "Change from Baseline in FVC over 26 Weeks, Frequentist Adjusted Mean (SE)", "setting": "[2]; [6]", "result": -21.5, "unit": "mL"},
      {"measurement": "Change from Baseline in FVCpp over 26 Weeks, Frequentist Adjusted Mean (SE)", "setting": "[2]; [6]", "result": "−0.43"},
      {"measurement": "half-life", "setting": "CYP2D6", "result": 2.72, "unit": "h"}
    ]}
  ]
}
